Columns and labels:
phenylalanine metabolism = test: Phenylalanine and tyrosine levels in rat serum, liver and heart tissues (LC/MS); assay type: in vivo; details: DOX-induced CHF rats, day 39
Experimental: Phenylalanine and tyrosine in the different rat bio-samples were analyzed by LC/MS using an Agilent 1290 Ultra high-performance liquid chromatography (UHPLC) and an Agilent 6460 triple-quadrupole tandem mass spectrometer (QQQ-MS) (Agilent Inc, USA). Data were acquired by using an Agilent Zorbax SB-C18 column (3.0 × 150 mm, 5 μm) as described previously.

[1] = tested on: phenylalanine hydroxylase (PAH); test: PAH expression in liver and heart (western blotting, immunofluorescence); assay type: in vivo, rat
Experimental: Immunofluorescence staining was performed on tissue sections to detect phenylalanine hydroxylase (PAH), prostaglandin-endoperoxide synthase 2 (PTGS2), and reactive oxygen species (ROS). Primary antibodies against PAH and PTGS2 were used, while ROS was detected using the DCFH-DA probe. Nuclei were counterstained with DAPI. Images were captured using a fluorescence microscope.
Protein was extracted from liver or heart tissue samples (30 mg) using lysis buffer. Total protein concentration was determined using a BCA protein assay kit (Thermo Fisher Scientific, USA). Equal amounts of protein from each sample were separated on 10–12% SDS-PAGE gels and transferred to PVDF membranes. Membranes were blocked with quick blocking buffer for 30 min, then incubated with anti-PAH primary antibody (1:1000 dilution) overnight at 4 °C. After washing, membranes were incubated with a secondary antibody for 1 h at 37 °C. Protein bands were visualized using an Odyssey infrared imaging system (JS-1070, Shanghai Peiqing Science & Technology Co., Ltd, China). Band intensities were quantified using ImageJ software.

[2] = tested on: urinary metabolites of DOX-induced CHF rats; test: Urine metabolomics (UHPLC-Q-TOF/MS); assay type: in vivo, rat
Experimental: Urine samples (200 μL) were mixed with 200 μL of protein precipitant (methanol: acetonitrile, 1:1) and vortexed for 30 s at 4 °C. Samples were sonicated for 10 min in an ice bath, then incubated at – 20 °C for 1 h. After centrifugation at 13,000 rpm for 15 min at 4 °C, 200 μL of supernatant was transferred to sample vials for analysis. A pooled quality control (QC) sample was prepared by combining 10 μL of supernatant from each sample. Sample analysis was performed using a Waters H-Class UPLC system coupled to a Triple TOF 6600 mass spectrometer (AB SCIEX, USA). Chromatographic separation was achieved on an ACQUITY UPLC HSS T3 column (2.1 × 100 mm, 1.7 μm; Waters) using 0.1% formic acid in water (mobile phase A) and acetonitrile (mobile phase B). […] Mass spectrometry was performed in both positive and negative ionization modes. Key parameters included: ion spray voltage, 5500/− 4500 V; m/z range, 60–1000; gas 1 and 2, 60 psi; curtain gas, 35 psi; accumulation time, 1.2 s; source temperature, 550 °C; declustering potential, 60 V. Information-dependent acquisition (IDA) was used with the following settings: m/z range, 50–1000; accumulation time, 0.05 s; collision energy, 40 ± 20 V. Data processing was performed using XC-MS plus software for peak alignment, extraction, and normalization. Metabolite identification was carried out using the MetDNA database. Multivariate statistical analysis, including principal component analysis (PCA) and orthogonal partial least squares discriminant analysis (OPLS-DA), was conducted using MetaboAnalyst 5.0. Differential metabolites were identified based on variable importance in projection (VIP) scores > 1.0 and P < 0.05. Fold change (FC) values were used to determine up- or down-regulation. Metabolic pathway analysis was performed using MetaboAnalyst 5.0, with significance set at P < 0.05.

[3] = DOX vs CON group, experiment I, p < 0.001
[4] = experiment II, DOX vs CON, co-treatments vs DOX

With COc1cccc2c1C(=O)c1c(O)c3c(c(O)c1C2=O)C[C@@](O)(C(=O)CO)C[C@@H]3O[C@H]1C[C@H](N)[C@H](O)[C@H](C)O1 [DOX, Doxorubicin] the “phenylalanine levels in hepatic and cardiac tissues and plasma” value (phenylalanine metabolism) was “significant elevation”, the “ectopic heart PAH expression” value [1, 3] was “significantly increased” and the “liver PAH expression” value [1, 3] was “significantly decreased”. For the same molecule, the “PAH expression in heart tissue” value [1, 4] was “significantly raising”, the “PAH expression in liver tissue” value [1, 4] was “substantially lowered” and the “urinary levels of 4-(2-aminophenyl)-2,4-dioxobutanoate, hippurate, phenylacetylglycine, 5-methoxyindoleacetate, phenylpyruvate, and phenylalanine” value ([2]; DOX group vs CON group) was “significantly increased”. The “urinary levels of indole-3-acetaldehyde, urea, anthranilate, indoleacetic acid, tryptamine, N-acetyl-L-glutamate, tyrosine, and glutamate” value ([2]; DOX group vs CON group) was “significantly decreased” and the urinary phenylalanine level ([2]; day 10 after DOX administration, P < 0.001) was “sharp increase”.

Reference: PMC12794274, “Therapeutic potential of Sheng-Xian-Tang in doxorubicin-induced chronic heart failure by regulation of phenylalanine metabolism disruption” (Chinese Medicine, 2026)
